Experimental data published in PubChem BioAssay (NCI).
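Dose response: 5 concentrations. Exposure: 48 h. Format: 96-well plates. Endpoint: linear interpolation; highest concentration if not reached. GI50: concentration for 50% inhibition of growth. TGI is the concentration that stops growth completely.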

Experiments:
Assay in all cases: inhibition of tumour cell growth, NCI panel, 48 h
786-0 renal = system: 786-0 renal
A498 renal = system: A498 renal
A549 NSCLC = system: A549 NSCLC
BT-549 breast = system: BT-549 breast
CAKI-1 renal = system: CAKI-1 renal
CCRF-CEM leukemia = system: CCRF-CEM leukemia
COLO 205 colon = system: COLO 205 colon
DU-145 prostate = system: DU-145 prostate
EKVX NSCLC = system: EKVX NSCLC
HCT-116 colon = system: HCT-116 colon
HCT-15 colon = system: HCT-15 colon
HL-60(TB) leukemia = system: HL-60(TB) leukemia
HOP-62 NSCLC = system: HOP-62 NSCLC
HOP-92 NSCLC = system: HOP-92 NSCLC
HT29 colon = system: HT29 colon
IGROV1 ovarian = system: IGROV1 ovarian
K-562 leukemia = system: K-562 leukemia
LOX IMVI melanoma = system: LOX IMVI melanoma
M14 melanoma = system: M14 melanoma
MALME-3M melanoma = system: MALME-3M melanoma
MCF7 breast = system: MCF7 breast
MDA-MB-231 breast = system: MDA-MB-231 breast
MDA-MB-435 = system: MDA-MB-435
MOLT-4 leukemia = system: MOLT-4 leukemia
NCI-H226 lung = system: NCI-H226 lung
NCI-H23 lung = system: NCI-H23 lung

Structure (SMILES): O=C1Nc2ccccc2/C1=C/C(=O)c1ccc(N2CCCC2)cc1
- GI50 (786-0 renal): 2.84 µM
- TGI (786-0 renal): > 100 µM
- GI50 (A498 renal): 3.45 µM
- TGI (A498 renal): > 100 µM
- GI50 (A549 NSCLC): 3.34 µM
- TGI (A549 NSCLC): > 100 µM
- GI50 (BT-549 breast): 3.27 µM
- TGI (BT-549 breast): > 100 µM
- GI50 (CAKI-1 renal): 1.2 µM
- TGI (CAKI-1 renal): > 100 µM
- GI50 (CCRF-CEM leukemia): 2 µM
- TGI (CCRF-CEM leukemia): > 100 µM
- GI50 (COLO 205 colon): 1.67 µM
- TGI (COLO 205 colon): 4.96 µM
- GI50 (DU-145 prostate): 3.2 µM
- TGI (DU-145 prostate): > 100 µM
- GI50 (EKVX NSCLC): 6.09 µM
- TGI (EKVX NSCLC): > 100 µM
- GI50 (HCT-116 colon): 1.56 µM
- TGI (HCT-116 colon): 4.24 µM
- GI50 (HCT-15 colon): 0.686 µM
- TGI (HCT-15 colon): 9.7 µM
- GI50 (HL-60(TB) leukemia): 1.24 µM
- TGI (HL-60(TB) leukemia): 4.56 µM
- GI50 (HOP-62 NSCLC): 2.47 µM
- TGI (HOP-62 NSCLC): > 100 µM
- GI50 (HOP-92 NSCLC): 1.75 µM
- TGI (HOP-92 NSCLC): 7.11 µM
- GI50 (HT29 colon): 1.2 µM
- GI50 (IGROV1 ovarian): 1.71 µM
- TGI (IGROV1 ovarian): 9.07 µM
- GI50 (K-562 leukemia): 0.833 µM
- TGI (K-562 leukemia): > 100 µM
- GI50 (LOX IMVI melanoma): 1.73 µM
- TGI (LOX IMVI melanoma): 3.56 µM
- GI50 (M14 melanoma): 2.28 µM
- TGI (M14 melanoma): 22.3 µM
- GI50 (MALME-3M melanoma): 2.84 µM
- TGI (MALME-3M melanoma): > 100 µM
- GI50 (MCF7 breast): 2.05 µM
- TGI (MCF7 breast): > 100 µM
- GI50 (MDA-MB-231 breast): 3.73 µM
- TGI (MDA-MB-231 breast): > 100 µM
- GI50 (MDA-MB-435): 1.25 µM
- TGI (MDA-MB-435): > 100 µM
- GI50 (MOLT-4 leukemia): 2.02 µM
- GI50 (NCI-H226 lung): 4.35 µM
- TGI (NCI-H226 lung): > 100 µM
- GI50 (NCI-H23 lung): 5.2 µM
- TGI (NCI-H23 lung): > 100 µM
